The assay deals with S. aureus Col (Meth^R) (lac^-). As to the kind of experiment: MIC by agar dilution, S. aureus Col (Meth^R) (lac^-). Format: cell-based. As to conditions: Staphylococcus aureus; agar dilution; S. aureus Col (Meth^R) (lac^-); read-out: MIC. How it is done:
The compounds of the invention were evaluated against several β-lactamresistant bacteria strains by determining the minimum inhibitory concentration (MIC, μg/ml) of each compound with respect to each strain. The MIC, the lowest concentration of antibiotic which inhibits growth of the test organism, was determined by the agar dilution method.
To determine the MIC for bacterial isolates, the test compound was incorporated in a series of two-fold dilutions into liquified Mueller-Hinton agar. Upon solidification, a number of different bacterial strains were spot inoculated with a replicating device onto the agar surface. […] The procedures used in these studies have been standardized by the National Committee for Clinical Laboratory Standards (NCCLS), as per the NCCLS publication entitled METHODS FOR DILUTION ANTIMICROBIAL SUSCEPTIBILITY TESTS (1991), which is incorporated herein by reference.
Aliquots of antimicrobial agents were prepared in phosphate buffered saline (PBS) at pH 7.2. Tween 20 or DMSO was used as a solubilizing vehicle as needed. Standard methods of vortexing, sonicating and gentle heat were used to facilitate solubilizing the test agent. Typically, the concentration of the stock solution was 10× that of the highest drug concentration tested. A 1.28 mg/mL stock solution was used with a subsequent highest working concentration of 128 μg/mL. Serial two-fold dilutions were done through ≤0.25 μg/mL. Each drug level was tested in duplicate. Two-fold drug dilutions were done in sterile 50 mL tubes with a final drug volume of 5 mL. Upon the addition of 45 mL of molten agar, a 10-fold dilution resulted. Two, 25 mL. plates were then poured into 15×150 mm square Petri plates with grids and allowed to harden.
A control plate with a reference drug, either cefotaxime, vancomycin or imipenem, was used as the positive growth control. Stock concentrations of reference antibiotics were prepared and frozen at -80° C. Upon preparation, the control plates were sealed and stored in the refrigerator for up to 1 week prior to use; however, imipenem control plates had to be prepared just prior to use. All test plates were used within 24 hours of preparation.
Satisfactory results were obtained where the inoculum contained about 10^4 colony forming units (cfu) ±0.5 logs. Starting with pure cultures of the test isolates on agar plates, a few isolated colonies were transferred to a tube of nutrient broth and allowed to grow 4-6 hours at 35°-36° C. to reach log-phase growth. Dropwise addition of the broth culture to PBS was done to match a 0.5 McFarland turbidity standard equal to 10^8 cfu/mL. This was further diluted ten-fold in PBS to reach a working inoculum concentration of 10^7 cfu/mL. When 1 μL of the working inoculum was applied to the agar surface a concentration of about 10^4 cfu per spot was obtained.
Disposable sterile 1 μL loops were used to inoculate test plates, with each isolate in a designated grid on the agar plate. An alternate method of inoculation involved the use of a replica plater, a device with 48 steel pins allowing the simultaneous inoculation of multiple isolates. After the spots had dried, the plates were incubated at 35°-36° C. for 16-20 hours. Endpoints were assessed as the minimum inhibitory concentration (MIC) of antimicrobial agent.
The novel agents of this invention are notable for their enhanced activity against S. aureus Col and Enterococci (E. faecium and E. faecalis). The S. aureus Col strain is a high-level PBP2a producer, whereas S. aureus Col 8A, its isogenic partner, lacks PBP2a. […] Thus, the compounds of the present invention are effective against PBP2a-producing bacteria.
Background: In agar dilution the substance is mixed into plates at graded concentrations.

Each structure is given as a SMILES string. Values after ≈ are worked out from the molar mass of the structure shown. Where a name gives a salt, the structure may show the parent alone.

By MIC is commonly meant the lowest concentration that inhibits growth of the organism. In the case of `O=C(Cc1ccccc1)N[C@@H]1C(=O)N2C(C(=O)O)=C(Sc3ccc(Cl)c(Cl)c3)CS[C@H]12` [Cmpd 18, (7R)-7-[(Phenylacetyl)amino]-3-(3,4-dichlorophenylthio)-3-cephem-4-carboxylic acid], the MIC was 4 µg/mL (≈ 8.07 µM).
`N=C(N)SCc1ccccc1SC1=C(C(=O)O)N2C(=O)[C@@H](NC(=O)Cc3ccc(O)cc3)[C@H]2SC1` [Cmpd 99, (7R)-7-[((4-Hydroxyphenyl)acetyl)amino]-3-(2-isothiouroniummethylphenylthio)-3-cephem-4-carboxylic acid, inner salt]: the MIC worked out at 4 µg/mL.
The same measure for `N=C(N)SCc1ccc(SC2=C(C(=O)O)N3C(=O)[C@@H](NC(=O)Cc4ccccc4)[C@H]3SC2)cc1` [Cmpd 63, (7R)-7-[(Phenylacetyl)amino]-3-(4-isothiouroniummethylphenylthio)-3-cephem-4-carboxylate, inner salt]: 4 µg/mL.
As for `O=C(COc1ccc(Cl)cc1)N[C@@H]1C(=O)N2C(C(=O)O)=C(Sc3ccccc3I)CS[C@H]12` [Cmpd 30, (7R)-7-[(p-Chlorophenoxyacetyl)amino]-3-(o-iodophenylthio)-3-cephem-4-carboxylic acid], the figure is 0.5 µg/mL (≈ 0.829 µM).
As for `CN(C)C(SCc1ccccc1SC1=C(C(=O)[O-])N2C(=O)[C@@H](NC(=O)Cc3ccccc3)[C@H]2SC1)=[N+](C)C` [Cmpd 69, (7R)-7-[(Phenylacetyl)amino]-3-(2-tetramethylisothiouroniummethylphenylthio)-3-cephem-4-carboxylate, inner salt], the figure is 4 µg/mL.
Consider `O=C(Cc1ccccc1)N[C@@H]1C(=O)N2C(C(=O)O)=C(Sc3ccccc3-n3cccn3)CS[C@H]12` [Cmpd 132, (7R)-7-[(Phenylacetyl)amino]-3-(2-(pyrazol-1-yl)phenylthio)-3-cephem-4-carboxylic acid], for which the MIC came out at 8 µg/mL (≈ 16.2 µM).
As for `O=C(Cc1ccccc1)N[C@@H]1C(=O)N2C(C(=O)O)=C(Sc3cc(F)ccc3Br)CS[C@H]12` [Cmpd 33, (7R)-7-[(Phenylacetyl)amino]-3-(2-bromo-5-fluorophenylthio)-3-cephem-4-carboxylic acid], the figure is 1 µg/mL (≈ 1.91 µM).
As to `O=C(Cc1ccccc1)N[C@@H]1C(=O)N2C(C(=O)O)=C(Sc3ccc4ccccc4c3Br)CS[C@H]12` [Cmpd 57, (7R)-7-[(Phenylacetyl)amino]-3-(1-bromo-naphthalen-2-ylthio)-3-cephem-4-carboxylic acid], the MIC was found to be 0.5 µg/mL (≈ 0.9 µM).
The same measure for `O=C(Cc1ccccc1)N[C@@H]1C(=O)N2C(C(=O)O)=C(Sc3ccc(F)cc3)CS[C@H]12` [Cmpd 1, (7R)-7-[(Phenylacetyl)amino]-3-(p-fluorophenylthio)-3-cephem-4-carboxylic acid]: 16 µg/mL (≈ 36 µM); for `N#CCC(=O)N[C@@H]1C(=O)N2C(C(=O)O)=C(Sc3ccccc3-c3ccccc3)CS[C@H]12` [Cmpd 34, (7R)-7-[(Cyanoacetyl)amino]-3-(2-biphenylthio)-3-cephem-4-carboxylic acid]: 2 µg/mL (≈ 4.43 µM).
The same measure for `O=C(Cc1ccccc1)N[C@@H]1C(=O)N2C(C(=O)O)=C(Sc3ccccc3-c3cnco3)CS[C@H]12` [Cmpd 95, (7R)-7-[(Phenylacetyl)amino]-3-(2-oxazol-5-ylphenylthio)-3-cephem-4-carboxylic acid]: 4 µg/mL (≈ 8.1 µM); for `N#CCC(=O)N[C@@H]1C(=O)N2C(C(=O)O)=C(Sc3ccc(CSC(=N)N)cc3I)CS[C@H]12` [Cmpd 66, (7R)-7-[(Cyanoacetyl)amino]-3-(4-isothiouroniummethyl-2-iodophenylthio)-3-cephem-4-carboxylate, inner salt]: 2 µg/mL; for `O=C(Cc1cccs1)N[C@@H]1C(=O)N2C(C(=O)O)=C(Sc3cc(Cl)ccc3Cl)CS[C@H]12` [Cmpd 26, (7R)-7-[(2-Thienylacetyl)amino]-3-(2,5-dichlorophenylthio)-3-cephem-4-carboxylic acid]: 0.5 µg/mL (≈ 0.997 µM).
As for `CCN=C(NCC)SCc1ccccc1SC1=C(C(=O)O)N2C(=O)[C@@H](NC(=O)Cc3ccccc3)[C@H]2SC1` [Cmpd 74, (7R)-7-[(Phenylacetyl)amino]-3-(2-N,N'-diethylisothiouroniummethylphenylthio)-3-cephem-4-carboxylate, inner salt], the figure is 16 µg/mL.
For the molecule `O=C(Cc1ccccc1)N[C@@H]1C(=O)N2C(C(=O)O)=C(Sc3ccccc3CO)CS[C@H]12` [Cmpd 38, (7R)-7-[(Phenylacetyl)amino]-3-(2-hydroxymethylphenylthio)-3-cephem-4-carboxylic acid], the MIC amounted to 4 µg/mL (≈ 8.76 µM).
Take `O=C(Cc1ccccc1)N[C@@H]1C(=O)N2C(C(=O)O)=C(Sc3ccccc3-c3cccs3)CS[C@H]12` [Cmpd 37, (7R)-7-[(Phenylacetyl)amino]-3-(2-(2-thienyl)phenylthio)-3-cephem-4-carboxylic acid]: the MIC turned out to be 2 µg/mL (≈ 3.93 µM).
The same measure for `O=C(Cc1ccccc1)N[C@@H]1C(=O)N2C(C(=O)O)=C(Sc3snnc3-c3ccccc3)CS[C@H]12` [Cmpd 93, (7R)-7-[(Phenylacetyl)amino]-3-(4-phenyl-1,2,3-thiadiazol-5-ylthio)-3-cephem-4-carboxylic acid]: 2 µg/mL (≈ 3.92 µM); for `N=C(N)SCCc1ccccc1SC1=C(C(=O)O)N2C(=O)[C@@H](NC(=O)Cc3ccccc3)[C@H]2SC1` [Cmpd 100, (7R)-7-[(Phenylacetyl)amino]-3-(2-(2-isothiouronium)ethylphenylthio)-3-cephem-4-carboxylate, inner salt]: 4 µg/mL.
`O=C(Cc1ccccc1)N[C@@H]1C(=O)N2C(C(=O)O)=C(Sc3ccccc3CSC3=NCCN3)CS[C@H]12` [Cmpd 72]: the MIC worked out at 4 µg/mL (≈ 7.4 µM).
In the case of `Nc1nc(-c2ccccc2)c(SC2=C(C(=O)O)N3C(=O)[C@@H](NC(=O)Cc4ccccc4)[C@H]3SC2)s1` [Cmpd 92, (7R)-7-[(Phenylacetyl)amino]-3-(2-amino-4-phenylthiazol-5-ylthio)-3-cephem-4-carboxylic acid], the MIC amounted to 2 µg/mL (≈ 3.81 µM).
As for `Cn1cc[n+](Cc2ccoc2-c2ccccc2SC2=C(C(=O)[O-])N3C(=O)[C@@H](NC(=O)Cc4ccccc4)[C@H]3SC2)c1` [Cmpd 48, (7R)-7-[(Phenylacetyl)amino]-3-(2-(3-(N-methylimidazoliummethyl)furan-2-yl)phenylthio)-3-cephem-4-carboxylic acid], the figure is 4 µg/mL (≈ 6.82 µM); as for `Nc1nnc(SCC(=O)N[C@@H]2C(=O)N3C(C(=O)O)=C(Sc4ccnn4-c4ccccc4)CS[C@H]23)s1` [Cmpd 120], 8 µg/mL (≈ 14.6 µM); as for `O=C(Cc1ccccc1)N[C@@H]1C(=O)N2C(C(=O)O)=C(Sc3cccc4c3CCCC4)CS[C@H]12` [Cmpd 56, (7R)-7-[(Phenylacetyl)amino]-3-(5,6,7,8-tetrahydronaphthalen-1-ylthio)-3-cephem-4-carboxylic acid], 1 µg/mL (≈ 2.08 µM).
As for `O=C(Cc1ccccc1)N[C@@H]1C(=O)N2C(C(=O)O)=C(Sc3ccc(CSC4=NCCN4)cc3I)CS[C@H]12` [Cmpd 59, (7R)-7-[(Phenylacetyl)amino]-3-(4-(2-imidazolin-2-ylthiomethyl)-2-iodophenylthio)-3-cephem-4-carboxylic acid], the figure is 2 µg/mL (≈ 3 µM); as for `O=C(Cc1ccccc1)N[C@@H]1C(=O)N2C(C(=O)O)=C(Sc3cccc4oc5ccccc5c34)CS[C@H]12` [Cmpd 21, (7R)-7-[(Phenylacetyl)amino]-3-(dibenzofuranyl-1-thio)-3-cephem-4-carboxylic acid], 1 µg/mL (≈ 1.94 µM); as for `O=C(Cc1ccccc1)N[C@@H]1C(=O)N2C(C(=O)O)=C(Sc3cccc4ccccc34)CS[C@H]12` [Cmpd 54, (7R)-7-[(Phenylacetyl)amino]-3-(1-naphthalenylthio)-3-cephem-4-carboxylic acid], 1 µg/mL (≈ 2.1 µM).
As for `O=C(Cc1ccccc1)N[C@@H]1C(=O)N2C(C(=O)O)=C(Sc3cnnn3-c3ccccc3)CS[C@H]12` [Cmpd 91, (7R)-7-[(Phenylacetyl)amino]-3-(1-N-phenyl-1,2,3-triazol-5-ylthio)-3-cephem-4-carboxylic acid], the figure is 4 µg/mL (≈ 8.1 µM); as for `O=C(Cc1ccccc1)N[C@@H]1C(=O)N2C(C(=O)O)=C(Sc3ccccc3CSc3ccncc3)CS[C@H]12` [Cmpd 70], 4 µg/mL (≈ 7.28 µM).

For the origin of these results see patent US5698547A, “Cephalosporin antibiotics” (Microcide Pharmaceuticals, Inc., priority 1995, dated 1997).
